Test results taken from ChEMBL document CHEMBL1157539, “Thousands of chemical starting points for antimalarial lead identification” (Nature, 2010).
“And” between values parts separate entries of the source, which are not always exact repeats. Equal entries are not always repeated.

Test system: Plasmodium falciparum
Experiment: GSK_TCMDC: Inhibition of Plasmodium falciparum 3D7 in whole erythrocytes, using parasite LDH activity as an index of growth.
Format: functional, organism-based
Conditions: not given

Structure (SMILES)	XC50
Cc1[nH]c(C)c(-c2ccc(Oc3ccc(OC(F)(F)F)cc3)cc2)c(=O)c1Br	563 nM and 112 nM
C#CCOc1ccc(CC(C)NCC(O)c2cccc(C(F)(F)F)c2)cc1 (stereo not given)	1190 nM

Same assay, conditions: Plasmodium falciparum, 3D7

Structure (SMILES)	XC50 [nM]
COC(=O)c1cccc(CNCc2ccc(-c3ccc(-c4nc5cc(F)ccc5[nH]4)s3)cc2)c1	588
OC[C@H]1CCCN1CC#Cc1cc2c(Nc3ccc(OCc4cccc(F)c4)c(Cl)c3)ncnc2s1	1210
COc1cccc(Cc2c(C)nc3nc(N)nc(N)c3c2C)c1	879
CN1C(=CC(=O)NC(=O)c2ccccc2)C(C)(C)c2ccccc21	637
CCN1CCC(N(Cc2ccc(-c3ccc(C(F)(F)F)cc3)o2)C(=O)Cn2c(CCc3cccc(F)c3F)nc(=O)c3ccccc32)CC1	1140
O=C(Nc1ccc([N+](=O)[O-])cc1)Nc1cc(C(F)(F)F)ccc1F	1070
COc1ccc(Cn2ccc3c4c(N)nc(N)nc4ccc32)cc1	3.2
CCCCCCNC[C@@H](O)[C@H](Cc1ccccc1)NC(=O)c1cc(NCC)cc(N2CCCCS2(=O)=O)c1	995
CCOc1cc2ncnc(Nc3ccc(OCc4ccccc4Br)c(OC)c3)c2cc1OCC	467
Cc1cc2nc(-c3ccc(C(=O)NCCCc4ccccc4)cc3)[nH]c2cc1C	1180
CC(=O)N[C@H](C(=O)Nc1ccc(-c2ccc(-c3nc4cc(C(F)(F)F)ccc4[nH]3)cc2)cc1)C(C)C	889
CCc1c(CCNCCCCCCNCCc2ccc(Br)cc2)ccc(OC)c1OC	232
N#Cc1ccc(-n2cc(C(=O)Nc3ccc4c(c3)CCN(C3CCC3)CC4)c(C(F)(F)F)n2)cc1	290
Cc1cc(C(=O)Nc2ccc(C)c(-c3nc(N(C(=O)c4ccc(F)c(C)c4)C4CCNCC4)nc4c3ccc(=O)n4-c3c(F)cccc3F)c2)ccc1F	319
CS(=O)(=O)c1ccccc1CNC(=O)c1cccc(-c2ccc(-c3nc4cc(C(F)(F)F)ccc4[nH]3)cc2)c1	809
COc1ccccc1N=C1SC(=Cc2cn(CC(=O)N3CCCc4ccccc43)c3ccccc23)C(=O)N1C1CCCCC1	28.9
O=C1C(c2ccccc2)=C(Nc2cc(Cl)cc(Cl)c2)c2ccccc21	372
COc1ccc(-c2csc3nc(C)nc(Cl)c23)cc1OC	357
FC(F)(F)c1ccc2[nH]c(-c3cccc(-c4ccc(CNCC5CCCO5)cc4)c3)nc2c1 (stereo not given)	277
O=C(Nc1cccc(CN2CCCN(Cc3cccc(O)c3)CC2)c1)c1cc2ccccc2s1	365
Cc1cc(CN2CC[C@H](NC(=O)c3ccc(Cl)c(Cl)c3)C2)ccc1OCCN1CCCC1	1160
Clc1cccc(C=NN=c2cc[nH]c3ccccc23)c1	852
O=C(CN1CCCCC1)Nc1ccc(Nc2nccc(NCC(O)c3ccccc3)n2)cc1 (stereo not given)	583
COc1ccc2nccc(N/N=C/c3cccc([N+](=O)[O-])c3)c2c1	398
CCc1c(CCNCCc2cccc(CCNCCc3ccc(OC)c(OC)c3CC)c2)ccc(OC)c1OC	361

Structure (SMILES)	XC50 [nM]
COc1ccc2nccc(NCC3(O)CCN(CC(O)c4ccc5c(c4)NC(=O)CS5)CC3)c2n1 (stereo not given)	834
Cc1ccc(Cl)c2sc(N3CCN(C(=O)c4ccc([N+](=O)[O-])o4)CC3)nc12	325
Cc1nn(-c2ccccc2)nc1C(=O)N(Cc1ccc(-c2ccc(CNCCc3ccc(S(C)(=O)=O)cc3)cn2)cc1)C(C)CN(C)C (stereo not given)	682
Nc1ncc(-c2ccccc2)cc1/C=C/c1cccnc1	1120
CC[C@H]1CN2CC[C@@H]1C[C@H]2[C@H](O)c1cc(-c2ccc(F)cc2)nc2ccc(O)cc12	140
OCc1ccc2nc3c(cc2c1)-c1cccc2cccc-3c12	664
CC(Cc1ccc(OCc2ccccc2)cc1)NCC(O)c1cccc(Cl)c1 (stereo not given)	547
Cc1cc(N2Cc3ccccc3C2)nc(Nc2ccc(S(=O)(=O)N3CCOCC3)cc2)n1	1110
O=C1COc2ccc3ccccc3c21	701
c1ccc(CN2CCC(Nc3ccc(-c4c[nH]nc4-c4ccccn4)nc3)CC2)cc1	799
Cc1ccc(CN2CCN(Cc3cccc(NC(=O)c4cccs4)c3)CC2)cc1C	1030
C=CC[C@@H](C(=O)OCC)[C@@H]1[C@@H](N(CC=C)C(=O)OC(C)(C)C)CCN1C(=O)OCc1ccccc1	964
C=C(C)COc1ccc(-c2n[nH]c(C(F)(F)F)c2-c2ccccc2OC)c(O)c1	781
Cc1cc(O)c(-c2cccc(Oc3ccc(Cl)cc3)c2)c(C)n1	736
COc1nc(-n2ccc(=N)cc2)nc2ccccc12	1060
CCC(C)Oc1ccc2nc(N)nc(N)c2c1Cl (stereo not given)	177
Cc1ccc(C(CC(=O)Nc2nccs2)c2ccc(OC(C)C)cc2)cc1 (stereo not given)	479
C#CCOc1ccc(CC(C)NCC(O)c2cccc(C(F)(F)F)c2)cc1 (stereo not given)	1030
Nc1c2c(nc3ccc(C(=O)Nc4ccccc4)cc13)CCCC2	714
CS(=O)(=O)c1cccc2sc(N3CCN(C(=O)c4ccc([N+](=O)[O-])o4)CC3)nc12	1240
CC(C)CCN1CCCN(Cc2cccc(NC(=O)c3ccc(Cl)c(Cl)c3)c2)CC1	1020
O=C(C=Cc1ccc(Cl)c(Cl)c1)NCCCCCN1CCC(CCCNC(=O)c2ccc3c(c2)OCO3)CC1	149
CC(C)CCNC(=O)c1cnc2c(O)cccc2c1Nc1cccc(NC(=O)c2ccc(F)cc2)c1	913
O=C(Nc1ccccc1C(F)(F)F)Nc1nn(Cc2c(F)cccc2Cl)cc1Br	337
COc1cccc(C2CCN(CCCCNC(=O)c3ccc(NC(=O)c4ccc(Cl)cc4)cc3)CC2)c1	965

Structure (SMILES)	XC50 [nM]
O=S(=O)(Nc1ccc2nccc(N3CCNCC3)c2c1)c1ccc(-c2ccccc2)cc1	977
O=c1cc(NCCCNCc2scc(I)c2I)[nH]c2ccccc12	586
Cc1cc(C(F)(F)F)n2nc(C3CCN(Cc4cc(C)c(O)c(C)c4)C3)cc2n1 (stereo not given)	758
CC1(C)N=C(N)N=C(N)N1OCCCc1ccccc1	3.2
O=C(Nc1cccc(-c2nn3ncccc3c2-c2ccnc(Nc3ccc(N4CCOCC4)cc3)n2)c1)c1c(F)cccc1F	158
CCN1CCN(c2cc(C)c3cc(NC(=O)c4ccc(OC)c([N+](=O)[O-])c4)ccc3n2)CC1	553
C=CCn1c(SCc2c(C)noc2C)nc2scc(-c3cccs3)c2c1=O	1100
CC(=O)Nc1cccc(CN(Cc2ccc(-c3ccc(CNCc4cccnc4)cn3)cc2)C(=O)Cc2cccnc2)c1	820
Cc1cc(SC(C)(C)C)cc2c(Cl)c(C(N)=O)cnc12	1090
Cc1nc(N)nc(N)c1-c1cc(Cl)c(Cl)c(Cl)c1	834
CN1CCC(N2CCN(CCOc3cc(NC(=O)/C=C/c4ccccc4Cl)ccc3Br)CC2)CC1	360
COCCNC(=O)c1ccc(OC2CCN(CC(C)=Cc3ccccc3)CC2)c(Cl)c1	652
CCCCCc1cc(OC(=O)CCCN(CC)CC)c2c(c1)OC(C)(C)C=C2C1=CCN(Cc2ccc3ccccc3c2)CC1	156
O=C(CSc1nc2ccc([N+](=O)[O-])cc2s1)Nc1ccccc1-c1ccccc1	1170
CC(C)(C)c1ccc(S(=O)(=O)Nc2ccccc2N2CCOCC2)cc1	683
CCN(CC)CCNc1ccnc2[nH]c3ccc(I)cc3c12	230
CCCNCc1ccc(-c2ccc(CN(CCOC)C(=O)CCC(=O)c3ccc(OC)c(F)c3)cc2)nc1	683
CNC(=O)c1cnc(Nc2ccc(N3CCN(C)CC3)cc2)nc1Nc1cccc(OC(C)C)c1	147
COc1ccccc1NC(=O)Nc1ccc(-c2ccc(-c3nc4cccc(C)c4[nH]3)s2)cc1	158
Cc1cc2nc(-c3ccc(SCC(=O)Nc4ccc5c(c4)OCCO5)nc3)[nH]c2cc1C	989
COc1cc(Cc2cnc(N)nc2N)cc(OCCCCCC(=O)O)c1OC	231
CC1(C)N=C(N)N=C(N)N1OCCc1ccc2ccccc2c1	3.2
CC(C)(CNC(=O)[C@@H]1CCCN(CCOc2ccc(F)c(F)c2)C1)c1nc(-c2ccc(Cl)c(O)c2)c(-c2ccncc2)[nH]1	722
CCN(CC)CCCCNc1cc(-c2[nH]c(C(C)(C)C)nc2-c2ccc3cc(OC)ccc3c2)ccn1	531
NC1=Nc2ccc(Cl)cc2C1(O)c1ccccc1 (stereo not given)	876

Structure (SMILES)	XC50 [nM]
COc1ccccc1N1CCN(C(C(=O)NCc2ccc3c(c2)OCO3)c2ccc3c(c2)OCCCO3)CC1 (stereo not given)	1120
CC(C)CC(=O)N1CCNC[C@@H]1C(=O)NC1CC1	1090
O=C(Nc1ccc(OC(F)(F)F)cc1)Nc1ccc([N+](=O)[O-])cc1	878
CCC(CSC1CCCCC1)N(C)CCN(C)C(CC)CSC1CCCCC1 (stereo not given)	314
O=S(=O)(c1c(Cl)cc(Cl)cc1Cl)N1CCCCC(c2ccc(F)c(F)c2)=N1	594
CC(C)Cc1nc2nc(N)nc(N)c2cc1C(C)C	226
Cc1cc(NC(=O)NCCN2CCC(NC(=O)c3cccc(Br)c3)C2)c2ccccc2n1 (stereo not given)	553
CCCCCC1c2[nH]c3ccccc3c2CCN1C(=O)OCc1ccccc1 (stereo not given)	389
O=C(Nc1ccc(-c2cccc(-c3nc4cc(C(F)(F)F)ccc4[nH]3)c2)cc1)c1cccnc1	725
O=C1OC(c2cc3ccccc3n2S(=O)(=O)c2ccccc2)(c2cc3ccccc3n2S(=O)(=O)c2ccccc2)c2ccccc21	846
O=C(Cc1cn(-c2ccccc2)nc1-c1ccc(Cl)cc1)Nc1nccs1	1200
CCc1ccccc1N1CCN(CCCC(=O)c2ccc(NC(=O)c3ccc(Cl)cc3)cc2)CC1	1310
Cc1cccc2nc(-c3ccc(-c4cccc(NC(=O)Nc5ccc6c(c5)OCO6)c4)cc3)[nH]c12	745
COc1ccc2ncc(C#N)c(CCN3CCC(NCc4ccc5c(c4)OCCO5)CC3)c2c1	910
COc1ccc(Cc2c(Cl)nc3nc(N)nc(N)c3c2C)c(OC)c1OC	725
N=C(N)Nc1nccc(NCc2ccccc2)n1	895
O=C(Nc1cccc(Oc2ccccc2)c1)N[C@H]1CCN(Cc2ccc(OCCCN3CCCCC3)cc2)C1	724
O=C(/C=C/C=C/c1ccc(Cl)c(Cl)c1)NCCCCCN1CCCC2CCCCC21 (stereo not given)	954
COc1cc(CN2CCN(c3ccnc(N(C)C4CCN(C)CC4)n3)CC2)cc(Cl)c1O	784
O=C(N1CCN(c2ccnc3cc4c(cc23)N(Cc2ccccc2)CC4)CC1)C(F)(F)F	257
O=C(NCc1cccc2ccccc12)c1ccc(CNC2CCN(Cc3ccccc3)CC2)cc1	838
O=C(Nc1cc(C(F)(F)F)ccc1N1CCOCC1)C(Cl)(Cl)Cl	373
O=C(NCCN1CCCC1)c1cccc(-c2ccc(-c3nc4cc(F)ccc4[nH]3)s2)c1	1530
